# Measured values from ChEMBL document CHEMBL3044913, “Synthesis, in vitro cytotoxicity, and antibacterial studies of new asymmetric bis-1,2,4-triazoles” (Med Chem Res, 2013).
# Columns and labels:
# [1] = Cytotoxicity against Homo sapiens (human) MDA231 cells assessed as inhibition of cell growth after 48 hr by MTT assay; format: functional, cell-based; conditions: MDA-MB-231, 48 h
# HT-29 = test: Cytotoxicity against Homo sapiens (human) HT-29 cells assessed as inhibition of cell growth after 48 hr by MTT assay; format: functional, cell-based; conditions: HT-29, 48 h
# Staphylococcus aureus [2] = test: Antibacterial activity against Staphylococcus aureus ATCC 25923 assessed as diameter of growth inhibition zone at 100 ug/ml after 24 hr by cup-plate method; format: functional; conditions: ATCC 25923, 24 h, read-out: DIZ
# Bacillus subtilis [3] = test: Antibacterial activity against Bacillus subtilis ATCC 6633 assessed as growth inhibition after 24 hr by two-fold serial dilution method; format: functional; conditions: ATCC 6633, 24 h
# Escherichia coli [4] = test: Antibacterial activity against Escherichia coli ATCC 25922 assessed as diameter of growth inhibition zone at 100 ug/ml after 24 hr by cup-plate method; format: functional; conditions: ATCC 25922, 24 h, read-out: DIZ
# Pseudomonas aeruginosa [5] = test: Antibacterial activity against Pseudomonas aeruginosa ATCC 27853 assessed as diameter of growth inhibition zone at 100 ug/ml after 24 hr by cup-plate method; format: functional; conditions: ATCC 27853, 24 h, read-out: DIZ
# Bacillus subtilis [6] = test: Antibacterial activity against Bacillus subtilis ATCC 6633 assessed as diameter of growth inhibition zone at 100 ug/ml after 24 hr by cup plate method; format: functional; conditions: ATCC 6633, 24 h, read-out: DIZ
# Pseudomonas aeruginosa [7] = test: Antibacterial activity against Pseudomonas aeruginosa ATCC 27853 assessed as growth inhibition after 24 hr by two-fold serial dilution method; format: functional; conditions: ATCC 27853, 24 h
# Staphylococcus aureus [8] = test: Antibacterial activity against Staphylococcus aureus ATCC 25923 assessed as growth inhibition after 24 hr by two-fold serial dilution method; format: functional; conditions: ATCC 25923, 24 h
# [9] = system: Radical scavenging activity; test: Antioxidant activity assessed as DPPH radical scavenging activity at 40 ug/ml after 30 min; format: functional
# Escherichia coli [10] = test: Antibacterial activity against Escherichia coli ATCC 25922 assessed as growth inhibition after 24 hr by two-fold serial dilution method; format: functional; conditions: ATCC 25922, 24 h
SMILES,IC50 [1] [µM],IC50 (HT-29) [µM],zone of inhibition at 100 µg/mL (Staphylococcus aureus [2]) [mm],MIC (Bacillus subtilis [3]) [µg/mL],zone of inhibition at 100 µg/mL (Escherichia coli [4]) [mm],zone of inhibition at 100 µg/mL (Pseudomonas aeruginosa [5]) [mm],zone of inhibition at 100 µg/mL (Bacillus subtilis [6]) [mm],MIC (Pseudomonas aeruginosa [7]) [µg/mL],MIC (Staphylococcus aureus [8]) [µg/mL],Activity [9] [%],MIC (Escherichia coli [10]) [µg/mL]
O=c1[nH]cc(F)c(=O)[nH]1 [FLUOROURACIL],2.72,3.24,,,,,,,,,
COc1ccc(-n2c(S)nnc2CSc2nnc(-c3ccccc3)n2-c2ccccc2)cc1,29.2,27.7,21,50,21,21,21,100,25,63,50
Sc1nnc(CSc2nnc(-c3ccccc3)n2-c2ccccc2)n1-c1ccccc1,8.57,5.49,16,12.5,16,16,16,50,12.5,85,25
CCOc1ccc(-n2c(S)nnc2CSc2nnc(-c3ccccc3)n2-c2ccccc2)cc1,,,5,100,5,5,5,100,100,34,100
COc1ccc(-n2c(S)nnc2Sc2nnc(-c3ccccc3)n2-c2ccccc2)cc1,,,5,100,5,5,5,100,100,28,100
CC(C)n1c(S)nnc1CSc1nnc(-c2ccccc2)n1-c1ccccc1,,,5,100,5,5,5,100,100,42,100
CCOc1ccc(-n2c(S)nnc2Sc2nnc(-c3ccccc3)n2-c2ccccc2)cc1,43.9,46.8,5,100,5,5,5,100,100,59,100
O=C1O[C@H]([C@@H](O)CO)C(O)=C1O,,,,,,,,,,94,
Sc1nnc(CSc2nnc(-c3ccccc3)n2-c2ccccc2)n1-c1ccc(Cl)cc1,50.3,36.6,16,25,16,16,16,100,50,65,50
CC1(C)S[C@@H]2[C@H](NC(=O)[C@H](N)c3ccccc3)C(=O)N2[C@H]1C(=O)O [AMPICILLIN],,,28,< 6.25,28,28,28,< 6.25,< 6.25,,< 6.25
Sc1nnc(Sc2nnc(-c3ccccc3)n2-c2ccccc2)n1-c1ccccc1,34.6,28.3,5,100,5,5,5,100,100,63,100
Sc1nnc(Sc2nnc(-c3ccccc3)n2-c2ccccc2)n1-c1ccc(Cl)cc1,49.7,38.4,16,25,16,16,16,25,12.5,64,12.5
Fc1ccc(-n2c(S)nnc2CSc2nnc(-c3ccccc3)n2-c2ccccc2)cc1,26.8,16.7,21,12.5,21,21,21,12.5,25,72,25
CC(C)n1c(S)nnc1Sc1nnc(-c2ccccc2)n1-c1ccccc1,,,5,100,5,5,5,100,100,39,100
Fc1ccc(-n2c(S)nnc2Sc2nnc(-c3ccccc3)n2-c2ccccc2)cc1,29.7,32.8,16,25,16,16,16,50,25,60,50
